# Laboratory results from ChEMBL document CHEMBL1649315, “Extended-spectrum cephalosporinase in Acinetobacter baumannii” (Antimicrob Agents Chemother, 2010).
# Assays:
# Acinetobacter baumannii [1] = experiment: Antimicrobial activity against Acinetobacter baumannii KI by Etest method; assay type: functional
# Acinetobacter baumannii [2] = experiment: Antimicrobial activity against Acinetobacter baumannii CIP70.10 by Etest method; assay type: functional
# Escherichia coli [3] = experiment: Antimicrobial activity against Escherichia coli TOP10 harboring pADC-33 plasmid by Etest method; assay type: functional
# Escherichia coli [4] = experiment: Antimicrobial activity against Escherichia coli TOP10 harboring pADC-11 plasmid with entire blaAmpC gene by Etest method; assay type: functional
# Escherichia coli [5] = experiment: Antimicrobial activity against Escherichia coli TOP10 harboring pADC-11 plasmid by Etest method; assay type: functional
# Escherichia coli [6] = experiment: Antimicrobial activity against Escherichia coli TOP10 harboring pTOPO plasmid by Etest method; assay type: functional
# Escherichia coli [7] = experiment: Antimicrobial activity against Escherichia coli TOP10 harboring pADC-11 plasmid carrying entire blaAmpC gene with alanine residue insertion at 215 position and R210P substitution by Etest method; assay type: functional
# Escherichia coli [8] = experiment: Antimicrobial activity against Escherichia coli TOP10 harboring pADC-11 plasmid carrying entire blaAmpC gene with alanine residue insertion at 215 position by Etest method; assay type: functional
# Escherichia coli [9] = experiment: Antimicrobial activity against Escherichia coli TOP10 harboring pADC-33 plasmid with entire blaAmpC gene with alanine residue deletion at 215 position by Etest method; assay type: functional
# Acinetobacter baumannii [10] = experiment: Antimicrobial activity against Acinetobacter baumannii AYE expressing VEB-1 gene by Etest method; assay type: functional
# Escherichia coli [11] = experiment: Antimicrobial activity against Escherichia coli TOP10 harboring pADC-33 plasmid carrying entire blaAmpC gene with alanine residue deletion at 215 position and R210P substitution by Etest method; assay type: functional
# Escherichia coli [12] = experiment: Antimicrobial activity against Escherichia coli TOP10 harboring pADC-50 plasmid by Etest method; assay type: functional
# Escherichia coli [13] = experiment: Antimicrobial activity against Escherichia coli TOP10 harboring pADC-33 plasmid with entire blaAmpC gene by Etest method; assay type: functional
# Acinetobacter baumannii [14] = experiment: Ratio of Kcat to Km for Acinetobacter baumannii ADC-33 beta-lactamase to Kcat to Km for Acinetobacter baumannii ADC-11 beta-lactamase
# Escherichia coli [15] = experiment: Antimicrobial activity against Escherichia coli TOP10 harboring pADC-50 plasmid by Etest method in presence of clavulanic acid; assay type: functional
# Acinetobacter baumannii [16] = experiment: Antimicrobial activity against Acinetobacter baumannii KI by Etest method in presence of clavulanic acid; assay type: functional
# Acinetobacter baumannii [17] = experiment: Antimicrobial activity against Acinetobacter baumannii CIP70.10 by Etest method in presence of clavulanic acid; assay type: functional
# Escherichia coli [18] = experiment: Antimicrobial activity against Escherichia coli TOP10 harboring pADC-33 plasmid carrying entire blaAmpC gene by Etest method in presence of clavulanic acid; assay type: functional
# Escherichia coli [19] = experiment: Antimicrobial activity against Escherichia coli TOP10 harboring pADC-11 plasmid by Etest method in presence of clavulanic acid; assay type: functional
# Escherichia coli [20] = experiment: Antimicrobial activity against Escherichia coli TOP10 harboring pADC-33 plasmid carrying entire blaAmpC gene with alanine residue deletion at 215 position by Etest method in presence of clavulanic acid; assay type: functional
# Escherichia coli [21] = experiment: Antimicrobial activity against Escherichia coli TOP10 harboring pTOPO plasmid by Etest method in presence of clavulanic acid; assay type: functional
# Escherichia coli [22] = experiment: Antimicrobial activity against Escherichia coli TOP10 harboring pADC-11 plasmid carrying entire blaAmpC gene with alanine residue insertion at 215 position by Etest method in presence of clavulanic acid; assay type: functional
# Escherichia coli [23] = experiment: Antimicrobial activity against Escherichia coli TOP10 harboring pADC-33 plasmid carrying entire blaAmpC gene with alanine residue deletion at 215 position and R210P substitution by Etest method in presence of clavulanic acid; assay type: functional
# Escherichia coli [24] = experiment: Antimicrobial activity against Escherichia coli TOP10 harboring pADC-33 plasmid by Etest method in presence of clavulanic acid; assay type: functional
# Escherichia coli [25] = experiment: Antimicrobial activity against Escherichia coli TOP10 harboring pADC-11 plasmid carrying entire blaAmpC gene by Etest method in presence of clavulanic acid; assay type: functional
# Acinetobacter baumannii [26] = experiment: Antimicrobial activity against Acinetobacter baumannii AYE expressing VEB-1 gene by Etest method in presence of clavulanic acid; assay type: functional
# Escherichia coli [27] = experiment: Antimicrobial activity against Escherichia coli TOP10 harboring pADC-11 plasmid carrying entire blaAmpC gene with alanine residue deletion at 215 position and R210P substitution by Etest method in presence of clavulanic acid; assay type: functional
# Acinetobacter baumannii [28] = experiment: Antimicrobial activity against Acinetobacter baumannii expressing ESAC beta-lactamase by Etest method; assay type: functional
# Acinetobacter baumannii [29] = experiment: Antimicrobial activity against Acinetobacter baumannii beta-lactamase by Etest method; assay type: functional
# ADC-11 = ADC-11 (Acinetobacter baumannii, UniProt D6NSM8); experiment: Activity of Acinetobacter baumannii ADC-11 beta-lactamase
# Beta-lactamase ADC-33 = Beta-lactamase ADC-33 (Acinetobacter baumannii, UniProt B2ZTR6); experiment: Activity of Acinetobacter baumannii ADC-33 beta-lactamase
# Acinetobacter baumannii [30] = experiment: Ratio of Kcat to Ki for Acinetobacter baumannii ADC-33 beta-lactamase to Kcat to Ki for Acinetobacter baumannii ADC-11 beta-lactamase
SMILES,MIC (Acinetobacter baumannii [1]),MIC (Acinetobacter baumannii [2]),MIC (Escherichia coli [3]),MIC (Escherichia coli [4]),MIC (Escherichia coli [5]),MIC (Escherichia coli [6]),MIC (Escherichia coli [7]),MIC (Escherichia coli [8]),MIC (Escherichia coli [9]),MIC (Acinetobacter baumannii [10]),MIC (Escherichia coli [11]),MIC (Escherichia coli [12]),MIC (Escherichia coli [13]),kcat/Km (Acinetobacter baumannii [14]),also measured
C[C@@H](O)[C@H]1C(=O)N2C(C(=O)O)=C(S[C@@H]3CN[C@H](C(=O)N(C)C)C3)[C@H](C)[C@H]12 [MEROPENEM],2 µg/mL,0.25 µg/mL,0.023 µg/mL,0.032 µg/mL,0.023 µg/mL,0.023 µg/mL,0.032 µg/mL,0.032 µg/mL,0.032 µg/mL,1 µg/mL,0.032 µg/mL,0.023 µg/mL,0.032 µg/mL,–,–
CC(=O)OCC1=C(C(=O)O)N2C(=O)[C@@H](NC(=O)Cc3cccs3)[C@H]2SC1,–,–,–,–,–,–,–,–,–,–,–,–,–,500000 M⁻¹ s⁻¹,–
CC1(C)S[C@@H]2[C@H](NC(=O)[C@H](C(=O)O)c3ccsc3)C(=O)N2[C@H]1C(=O)O [TICARCILLIN],> 256 µg/mL,8 µg/mL,64 µg/mL,256 µg/mL,8 µg/mL,2 µg/mL,> 256 µg/mL,> 256 µg/mL,128 µg/mL,> 256 µg/mL,128 µg/mL,8 µg/mL,> 256 µg/mL,–,MIC (Escherichia coli [15]): 8 µg/mL; MIC (Acinetobacter baumannii [16]): 64 µg/mL; MIC (Acinetobacter baumannii [17]): 8 µg/mL; MIC (Escherichia coli [18]): > 256 µg/mL; MIC (Escherichia coli [19]): 8 µg/mL; MIC (Escherichia coli [20]): 128 µg/mL; MIC (Escherichia coli [21]): 2 µg/mL; MIC (Escherichia coli [22]): > 256 µg/mL; MIC (Escherichia coli [23]): 128 µg/mL; MIC (Escherichia coli [24]): 64 µg/mL; MIC (Escherichia coli [25]): 256 µg/mL; MIC (Acinetobacter baumannii [26]): 128 µg/mL; MIC (Escherichia coli [27]): > 256 µg/mL
CO/N=C(\C(=O)N[C@@H]1C(=O)N2C(C(=O)[O-])=C(C[n+]3cccc4c3CCC4)CS[C@H]12)c1csc(N)n1 [CEFPIROME],> 256 µg/mL,2 µg/mL,0.5 µg/mL,0.125 µg/mL,0.032 µg/mL,0.023 µg/mL,8 µg/mL,2 µg/mL,0.5 µg/mL,> 256 µg/mL,0.125 µg/mL,0.047 µg/mL,4 µg/mL,1.25e+07 M⁻¹ s⁻¹,MIC (Acinetobacter baumannii [28]): 128 µg/mL; MIC (Acinetobacter baumannii [29]): 4 µg/mL
C[C@H]1[C@H](NC(=O)/C(=N\OC(C)(C)C(=O)O)c2csc(N)n2)C(=O)N1S(=O)(=O)O [AZTREONAM],256 µg/mL,8 µg/mL,8 µg/mL,2 µg/mL,0.094 µg/mL,–,256 µg/mL,16 µg/mL,6 µg/mL,> 256 µg/mL,2 µg/mL,–,256 µg/mL,–,MIC (Acinetobacter baumannii [28]): > 256 µg/mL; Ki (ADC-11): 3000 nM; Ki (Beta-lactamase ADC-33): 7 nM; MIC (Acinetobacter baumannii [29]): 12 µg/mL
O=C(Cc1cccs1)N[C@@H]1C(=O)N2C(C(=O)[O-])=C(C[n+]3ccccc3)CS[C@H]12,–,–,–,–,–,–,–,–,–,–,–,–,–,800000 M⁻¹ s⁻¹,–
CO/N=C(\C(=O)N[C@@H]1C(=O)N2C(C(=O)O)=C(COC(N)=O)CS[C@H]12)c1ccco1 [CEFUROXIME],> 256 µg/mL,32 µg/mL,> 256 µg/mL,> 256 µg/mL,128 µg/mL,2 µg/mL,> 256 µg/mL,> 256 µg/mL,> 256 µg/mL,> 256 µg/mL,> 256 µg/mL,64 µg/mL,> 256 µg/mL,–,–
CC1(C)S[C@@H]2[C@H](NC(=O)Cc3ccccc3)C(=O)N2[C@H]1C(=O)O,–,–,–,–,–,–,–,–,–,–,–,–,–,1.3e+06 M⁻¹ s⁻¹,–
CO[C@@]1(NC(=O)Cc2cccs2)C(=O)N2C(C(=O)O)=C(COC(N)=O)CS[C@@H]21 [CEFOXITIN],–,–,–,–,–,–,–,–,–,–,–,–,–,–,kcat/Km (Acinetobacter baumannii [30]): 1e+06 M⁻¹ s⁻¹; Ki (ADC-11): 500 nM; Ki (Beta-lactamase ADC-33): 100 nM
CC1(C)S[C@@H]2[C@H](NC(=O)[C@H](N)c3ccccc3)C(=O)N2[C@H]1C(=O)O,–,–,–,–,–,–,–,–,–,–,–,–,–,500000 M⁻¹ s⁻¹,–
C[C@@H](O)[C@H]1C(=O)N2C(C(=O)O)=C(SCCNC=N)C[C@H]12 [IMIPENEM ANHYDROUS],2 µg/mL,0.25 µg/mL,0.25 µg/mL,0.38 µg/mL,0.19 µg/mL,0.125 µg/mL,–,0.38 µg/mL,0.5 µg/mL,1 µg/mL,0.25 µg/mL,–,0.5 µg/mL,800000 M⁻¹ s⁻¹,–
CO/N=C(\C(=O)N[C@@H]1C(=O)N2C(C(=O)[O-])=C(C[N+]3(C)CCCC3)CS[C@H]12)c1csc(N)n1,256 µg/mL,1 µg/mL,0.125 µg/mL,0.125 µg/mL,0.032 µg/mL,–,–,0.5 µg/mL,0.25 µg/mL,> 256 µg/mL,0.125 µg/mL,0.032 µg/mL,1 µg/mL,2e+07 M⁻¹ s⁻¹,MIC (Acinetobacter baumannii [28]): 32 µg/mL; MIC (Acinetobacter baumannii [29]): 2 µg/mL
CC1(C)S[C@@H]2[C@H](NC(=O)[C@H](N)c3ccc(O)cc3)C(=O)N2[C@H]1C(=O)O [AMOXICILLIN],> 256 µg/mL,32 µg/mL,> 256 µg/mL,> 256 µg/mL,> 256 µg/mL,2 µg/mL,> 256 µg/mL,> 256 µg/mL,> 256 µg/mL,> 256 µg/mL,> 256 µg/mL,256 µg/mL,> 256 µg/mL,–,MIC (Escherichia coli [15]): 256 µg/mL; MIC (Acinetobacter baumannii [16]): 64 µg/mL; MIC (Acinetobacter baumannii [17]): 16 µg/mL; MIC (Escherichia coli [18]): > 256 µg/mL; MIC (Escherichia coli [19]): 256 µg/mL; MIC (Escherichia coli [20]): > 256 µg/mL; MIC (Escherichia coli [21]): 2 µg/mL; MIC (Escherichia coli [22]): > 256 µg/mL; MIC (Escherichia coli [23]): 256 µg/mL; MIC (Escherichia coli [24]): > 256 µg/mL; MIC (Escherichia coli [25]): > 256 µg/mL; MIC (Acinetobacter baumannii [26]): 128 µg/mL; MIC (Escherichia coli [27]): 256 µg/mL
CO/N=C(\C(=O)N[C@@H]1C(=O)N2C(C(=O)O)=C(COC(C)=O)CS[C@H]12)c1csc(N)n1 [CEFOTAXIME],> 256 µg/mL,8 µg/mL,128 µg/mL,8 µg/mL,0.5 µg/mL,0.047 µg/mL,> 256 µg/mL,256 µg/mL,16 µg/mL,> 256 µg/mL,8 µg/mL,0.5 µg/mL,> 256 µg/mL,–,kcat/Km (Acinetobacter baumannii [30]): 2e+07 M⁻¹ s⁻¹; Ki (ADC-11): 2500 nM; Ki (Beta-lactamase ADC-33): 500 nM
CC(C)(O/N=C(\C(=O)N[C@@H]1C(=O)N2C(C(=O)[O-])=C(C[n+]3ccccc3)CS[C@H]12)c1csc(N)n1)C(=O)O [CEFTAZIDIME],> 256 µg/mL,2 µg/mL,> 256 µg/mL,8 µg/mL,0.5 µg/mL,0.125 µg/mL,> 256 µg/mL,> 256 µg/mL,16 µg/mL,> 256 µg/mL,8 µg/mL,0.5 µg/mL,> 256 µg/mL,1.5e+08 M⁻¹ s⁻¹,–
